Laboratory results from ChEMBL document CHEMBL1143983, “A photoswitchable ITAM peptidomimetic: synthesis and real time surface plasmon resonance (SPR) analysis of the effects of cis-trans isomerization on binding” (Bioorg Med Chem, 2008).
pKd: −log10 of the molar value.

Target: Tyrosine-protein kinase SYK (Homo sapiens, UniProt P43405)
Assay: Binding affinity to Syk tSH2 domain by SPR binding assay

Question: `CC(=O)N[C@@H](Cc1ccc(OP(=O)(O)O)cc1)C(=O)N[C@H](C(=O)NCC(=O)N[C@@H](CC(C)C)C(=O)NCC(=O)NCc1ccc(/N=N/c2ccc(C(=O)NCC(=O)N[C@@H](Cc3ccc(OP(=O)(O)O)cc3)C(=O)N[C@@H](CCC(=O)O)C(=O)N[C@H](C(=O)N[C@@H](CC(C)C)C(N)=O)[C@H](C)O)cc2)cc1)[C@H](C)O` was tested. Which pKd did it give?
Answer: 7.19
